Key:
YAP-CC domain = molecular target: T1, YAP-CC domain (Homo sapiens, UniProt P46937); experiment: biolayer interferometry; type: binding; conditions: read-out: affinity
T1 construct: gene YAP1
From the text: biolayer interferometry on YAP-CC domain | a binding between paeoniflorin and the YAP-CC domain with an affinity of […]

[1] = molecular target: T2, LgBiT-YAP-CC / SmBiT-PPM1B (Homo sapiens, UniProt P46937); experiment: NanoBiT split-luciferase protein-protein interaction assay in HeLa cells; type: cell-based
T2 construct: gene YAP1; with Protein phosphatase 1B
T2 sequence (P46937 298-328): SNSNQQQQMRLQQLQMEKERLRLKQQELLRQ
T2 sequence (O75688 2-479 partner): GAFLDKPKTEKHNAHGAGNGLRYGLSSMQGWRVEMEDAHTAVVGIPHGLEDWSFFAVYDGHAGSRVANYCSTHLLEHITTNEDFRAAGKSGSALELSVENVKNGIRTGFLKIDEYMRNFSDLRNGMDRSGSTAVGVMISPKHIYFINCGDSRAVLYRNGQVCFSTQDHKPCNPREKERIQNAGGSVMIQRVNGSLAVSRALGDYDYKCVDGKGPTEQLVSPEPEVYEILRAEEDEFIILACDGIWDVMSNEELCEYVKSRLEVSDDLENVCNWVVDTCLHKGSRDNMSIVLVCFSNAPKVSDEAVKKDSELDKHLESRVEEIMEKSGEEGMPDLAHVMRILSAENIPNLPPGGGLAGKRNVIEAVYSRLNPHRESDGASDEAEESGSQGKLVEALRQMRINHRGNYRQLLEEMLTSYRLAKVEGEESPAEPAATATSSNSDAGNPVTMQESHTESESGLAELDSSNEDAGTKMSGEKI

T1 sequence (P46937 298-328): as the sequence (P46937 298-328) above

**Q.** Which Kd (YAP-CC domain) does the source give for C[C@@]12C[C@@]3(O)O[C@@H](O1)[C@]1(COC(=O)c4ccccc4)[C@H]3C[C@@]12O[C@@H]1O[C@H](CO)[C@@H](O)[C@H](O)[C@H]1O [paeoniflorin] here?
**A.** 40.5 µM

**Q.** What about the IC50 [1] of the same molecule?
**A.** 4.8 µM

Reference: paper PMC11749085, “Paeoniflorin relieves arterial stiffness induced by a high-fat/high-sugar diet by disrupting the YAP-PPM1B interaction” (Life Medicine, 2023)
